Common to all, as to type: cell-based
One assay has as its target T1, human TLR7 (Homo sapiens, UniProt Q9NYK1).
T1 construct: host or cells: HEK-Blue cells
T1 sequence (Q9NYK1 27-1049): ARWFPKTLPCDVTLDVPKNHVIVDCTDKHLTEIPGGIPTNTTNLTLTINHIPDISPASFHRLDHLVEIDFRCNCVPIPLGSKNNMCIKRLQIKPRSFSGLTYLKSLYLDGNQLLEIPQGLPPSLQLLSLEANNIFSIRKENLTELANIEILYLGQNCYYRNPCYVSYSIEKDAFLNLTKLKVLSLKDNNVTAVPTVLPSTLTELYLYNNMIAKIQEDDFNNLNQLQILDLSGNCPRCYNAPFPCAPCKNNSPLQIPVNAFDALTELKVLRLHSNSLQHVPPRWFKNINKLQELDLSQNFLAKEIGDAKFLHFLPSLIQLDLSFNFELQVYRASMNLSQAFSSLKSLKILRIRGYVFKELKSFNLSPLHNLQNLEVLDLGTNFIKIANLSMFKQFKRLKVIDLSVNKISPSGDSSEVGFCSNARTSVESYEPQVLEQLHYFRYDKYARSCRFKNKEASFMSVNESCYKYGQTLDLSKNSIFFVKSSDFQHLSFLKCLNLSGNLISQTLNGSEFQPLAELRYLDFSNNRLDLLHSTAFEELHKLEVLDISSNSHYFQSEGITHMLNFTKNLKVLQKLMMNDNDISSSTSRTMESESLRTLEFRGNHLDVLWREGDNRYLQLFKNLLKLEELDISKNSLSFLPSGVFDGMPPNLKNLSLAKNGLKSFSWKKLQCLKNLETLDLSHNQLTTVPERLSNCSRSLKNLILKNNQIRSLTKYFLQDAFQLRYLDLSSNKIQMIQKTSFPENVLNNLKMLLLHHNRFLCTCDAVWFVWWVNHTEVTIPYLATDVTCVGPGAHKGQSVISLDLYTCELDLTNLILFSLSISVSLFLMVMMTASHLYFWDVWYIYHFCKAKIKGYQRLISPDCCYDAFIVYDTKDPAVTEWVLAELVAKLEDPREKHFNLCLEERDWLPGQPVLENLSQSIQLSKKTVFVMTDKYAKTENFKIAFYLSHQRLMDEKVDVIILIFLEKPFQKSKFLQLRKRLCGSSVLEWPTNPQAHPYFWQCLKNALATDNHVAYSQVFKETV
Kind of assay: TLR7 inhibition reporter assay (HEK-Blue cells, SEAP reporter, gardiquimod stimulation). As to conditions: HEK-Blue cells overexpressing human TLR7, SEAP reporter, gardiquimod 7.5 μM. How it is done:
(§1) TLR7/8/9 Inhibition Reporter Assays
(§2) HEK-Blue™-cells (Invivogen) overexpressing human TLR7, TLR8 or TLR9 receptors were used for screening inhibitors of these receptors using an inducible SEAP (secreted embryonic alkaline phosphatase) reporter gene under the control of the IFN-β minimal promoter fused to five NF-κB and AP-1-binding sites. Briefly, cells are seeded into Greiner 384 well plates (15000 cells per well for TLR7, 20,000 for TLR8 and 25,000 for TLR9) and then treated with test compounds in DMSO to yield a final dose response concentration range of 0.05 nM-50 μM. After a 30 minute compound pre-treatment al room temperature, the cells are then stimulated with a TLR7 ligand (gardiquimod at a final concentration of 7.5 μM), TLR8 ligand (R848 at a final concentration of 15.9 μM) or TLR9 ligand (ODN2006 at a final concentration of 5 nM) to activate NF-κB and AP-1 which induce the production of SEAP. After a 22 hour incubation at 37° C., 5% CO2, SEAP levels are determined with the addition of HEK-Blue™ Detection reagent (Invivogen), a cell culture medium that allows for detection of SEAP, according to manufacturer's specifications. The percent inhibition is determined as the % reduction in the HEK-Blue signal present in wells treated with agonist plus DMSO alone compared to wells treated with a known inhibitor.
Background: Reporter assays use an easily measured gene product as a stand-in for the process of interest.

The next assay deals with T2, human TLR8 (Homo sapiens, UniProt Q9NR97).
T2 construct: host or cells: HEK-Blue cells
T2 sequence (Q9NR97 27-1041): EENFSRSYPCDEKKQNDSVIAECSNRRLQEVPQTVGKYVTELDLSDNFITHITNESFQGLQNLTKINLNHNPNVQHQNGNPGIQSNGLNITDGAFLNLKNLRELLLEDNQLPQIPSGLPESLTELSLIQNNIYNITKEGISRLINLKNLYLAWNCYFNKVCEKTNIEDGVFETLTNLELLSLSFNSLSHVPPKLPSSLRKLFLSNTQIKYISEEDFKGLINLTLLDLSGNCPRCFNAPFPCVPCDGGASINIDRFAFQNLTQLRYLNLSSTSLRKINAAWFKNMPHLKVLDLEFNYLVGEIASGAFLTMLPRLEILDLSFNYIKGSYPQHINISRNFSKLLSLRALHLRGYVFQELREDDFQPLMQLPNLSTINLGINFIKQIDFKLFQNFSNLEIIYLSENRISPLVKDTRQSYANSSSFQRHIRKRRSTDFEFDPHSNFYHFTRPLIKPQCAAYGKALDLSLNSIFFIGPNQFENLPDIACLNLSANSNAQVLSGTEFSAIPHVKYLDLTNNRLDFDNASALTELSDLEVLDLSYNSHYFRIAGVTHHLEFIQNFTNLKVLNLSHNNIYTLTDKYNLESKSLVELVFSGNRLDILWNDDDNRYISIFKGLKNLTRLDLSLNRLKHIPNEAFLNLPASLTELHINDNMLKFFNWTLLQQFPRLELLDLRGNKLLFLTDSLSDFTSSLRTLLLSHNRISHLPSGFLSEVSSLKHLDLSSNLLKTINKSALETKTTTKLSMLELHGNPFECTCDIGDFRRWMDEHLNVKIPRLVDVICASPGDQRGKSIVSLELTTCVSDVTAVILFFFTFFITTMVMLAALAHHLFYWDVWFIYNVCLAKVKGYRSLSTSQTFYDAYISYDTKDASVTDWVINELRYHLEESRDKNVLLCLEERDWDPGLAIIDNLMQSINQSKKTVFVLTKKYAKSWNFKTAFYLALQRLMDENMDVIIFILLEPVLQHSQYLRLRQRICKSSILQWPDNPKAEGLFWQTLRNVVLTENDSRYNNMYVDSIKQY
Kind of assay: TLR8 inhibition reporter assay (HEK-Blue cells, SEAP reporter, R848 stimulation). The conditions noted are these: HEK-Blue cells overexpressing human TLR8, SEAP reporter, R848 15.9 μM. The procedure: as §1, §2

Another assay deals with T3, human TLR9 (Homo sapiens, UniProt Q9NR96).
T3 construct: host or cells: HEK-Blue cells
T3 sequence (Q9NR96 26-1032): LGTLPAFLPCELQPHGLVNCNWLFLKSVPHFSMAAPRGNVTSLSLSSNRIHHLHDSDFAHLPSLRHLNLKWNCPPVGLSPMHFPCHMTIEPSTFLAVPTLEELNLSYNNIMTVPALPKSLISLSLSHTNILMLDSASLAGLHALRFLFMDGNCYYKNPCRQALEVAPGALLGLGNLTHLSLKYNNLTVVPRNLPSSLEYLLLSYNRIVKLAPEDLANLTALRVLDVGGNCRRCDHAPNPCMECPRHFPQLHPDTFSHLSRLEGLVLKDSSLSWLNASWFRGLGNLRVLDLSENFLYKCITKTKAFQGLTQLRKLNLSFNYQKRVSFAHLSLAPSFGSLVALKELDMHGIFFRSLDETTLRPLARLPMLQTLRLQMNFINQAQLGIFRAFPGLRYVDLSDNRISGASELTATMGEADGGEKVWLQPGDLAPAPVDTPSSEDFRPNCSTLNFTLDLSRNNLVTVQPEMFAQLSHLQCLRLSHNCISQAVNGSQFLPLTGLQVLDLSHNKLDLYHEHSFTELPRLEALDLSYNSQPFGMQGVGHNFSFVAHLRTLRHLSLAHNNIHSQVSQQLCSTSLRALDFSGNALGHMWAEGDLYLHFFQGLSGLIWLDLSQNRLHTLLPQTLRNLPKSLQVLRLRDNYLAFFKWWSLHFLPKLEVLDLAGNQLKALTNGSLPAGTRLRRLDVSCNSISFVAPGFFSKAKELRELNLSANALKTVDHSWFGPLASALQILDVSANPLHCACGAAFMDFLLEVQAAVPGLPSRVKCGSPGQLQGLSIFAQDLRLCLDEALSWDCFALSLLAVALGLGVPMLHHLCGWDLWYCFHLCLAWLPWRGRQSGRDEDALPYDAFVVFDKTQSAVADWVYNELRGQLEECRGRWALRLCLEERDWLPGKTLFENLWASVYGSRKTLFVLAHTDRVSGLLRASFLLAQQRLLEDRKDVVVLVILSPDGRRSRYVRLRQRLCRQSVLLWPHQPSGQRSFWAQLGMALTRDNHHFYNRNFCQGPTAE
Kind of assay: TLR9 inhibition reporter assay (HEK-Blue cells, SEAP reporter, ODN2006 stimulation). As to conditions: HEK-Blue cells overexpressing human TLR9, SEAP reporter, ODN2006 5 nM. The procedure: as §1, §2

In US11878975B2, “Substituted indole compounds useful as TLR inhibitors” (BRISTOL-MYERS SQUIBB COMPANY, priority 2017, dated 2024) one finds IC50 data, which are given here for 20 compounds.

Regarding `Cc1c(-c2[nH]c3ccc(C4CCC(NCC(=O)N(C)C)CC4)cc3c2C(C)C)cn(C)c(=O)c1C` (stereo not shown) [Example 480], the IC50 (commonly the concentration at which inhibition is half-maximal) against human TLR7 stood at 20 nM; against human TLR8, 6.3 nM; against human TLR9, 6200 nM.
Regarding `Cc1cc(-c2[nH]c3ccc(C4CCC(N(C)C(=O)CN(C)C)CC4)cc3c2C(C)C)cn2ncnc12` (stereo not shown) [Example 148], the IC50 stood at 1 nM against human TLR7, 7.7 nM against human TLR8 and 2440 nM against human TLR9.
On the same counts, the results for `CN[C@@H](C)C(=O)NC1CCC(c2ccc3[nH]c(-c4cn5ncnc5c(C)c4C)c(C(C)C)c3c2)CC1` (stereo partly shown) [Example 131] are 0.45 nM, 1 nM and 2990 nM.
For the compound `Cc1cc(-c2[nH]c3ccc(CCN4CCS(=O)(=O)CC4)cc3c2C(C)C)cc(C)n1` [Example 401], the results for the IC50 against human TLR7, at human TLR8 and against human TLR9 were 27 nM, 86 nM and 3430 nM, respectively.
For the compound `Cc1cc(-c2[nH]c3ccc(C4CN(C5COC5)CCO4)cc3c2C(C)C)cc(C)n1` (stereo not shown) [Example 304], the figures for the IC50 against human TLR7, at human TLR8 and on human TLR9 were 89 nM, 108 nM and above 50000 nM, respectively.
Take `COCCC(=O)N1CCCC(c2ccc3[nH]c(-c4cc(C)nc(C)c4)c(C(C)C)c3c2)C1` (stereo not shown) [Example 208]: the values for the IC50 against human TLR7, against human TLR8 and on human TLR9 were 6 nM, 43 nM and above 50000 nM, respectively.
As to `Cc1c(-c2[nH]c3ccc(CC4CN(CCS(C)(=O)=O)C4)cc3c2C(C)C)cn(C)c(=O)c1C` [Example 418], the IC50 at human TLR7 turned out to be 77 nM; against human TLR8 it was 7 nM; at human TLR9 it was 9210 nM.
As for `Cc1cc(-c2[nH]c3ccc(CCN4CCOCC4)cc3c2C(C)C)cc(C)n1` [Example 393, 2-(2,6-dimethylpyridin-4-yl)-5-[2-(morpholin-4-yl)ethyl]-3-(propan-2-yl)-1H-indole], the IC50 against human TLR7 turned out to be 18 nM; at human TLR8 it was 9.3 nM; on human TLR9, 883 nM.
On the same counts, the results for `Cc1cc(-c2[nH]c3ccc(C4CCC(NCC(C)(C)O)CC4)cc3c2C(C)C)cn2ncnc12` (stereo not shown) [Example 104] are 3 nM, 6.5 nM and 6410 nM.
Turning to `COc1cc(-c2[nH]c3ccc(C4CCC(N5CC(C)OC(C)C5)CC4)cc3c2C(C)C)cn2ncnc12` (stereo not shown) [Example 41], the IC50 on human TLR7 stood at 4 nM; against human TLR8, 7.7 nM; against human TLR9, 2280 nM.
Take `Cc1c(-c2[nH]c3ccc(C4CCC(NCC(C)(C)O)CC4)cc3c2C(C)C)cn2ncnc2c1C` (stereo not shown) [Example 112]: the IC50 at human TLR7 was 6 nM; on human TLR8, 2 nM; against human TLR9, 2320 nM.
`Cc1cc(-c2[nH]c3ccc(CCN4CCOCC4)cc3c2C(C)C)cn(C)c1=O` [Example 403]: the IC50 against human TLR7 was found to be 36 nM; on human TLR8, 7.5 nM; on human TLR9 it was 23000 nM.
On to `Cc1c(-c2[nH]c3ccc(C4CC(NC5COC5)C4)cc3c2C(C)C)cn2ncnc2c1C` (stereo not shown) [Example 576], for which the IC50 against human TLR7 came to 23 nM; against human TLR8, 7.4 nM.
For `COc1cc(-c2[nH]c3ccc(C4CCC(NC(=O)CNCC5COC(C)(C)O5)CC4)cc3c2C(C)C)cn2ncnc12` (stereo not shown) [Example 136], the IC50 against human TLR8 amounted to 7.2 nM; against human TLR9, 19200 nM.
With `Cc1c(-c2[nH]c3ccc(C4CNC4)cc3c2C(C)C)cn(C)c(=O)c1C` [Example 486], the IC50 amounted to 19 nM at human TLR7 and 13 nM at human TLR8.
For the compound `Cc1cc(-c2[nH]c3ccc(C4CCC(C)(O)CC4)cc3c2C(C)C)cc(C)n1` (single isomer, unassigned) [Example 170], the IC50 at human TLR7 came to 13 nM; against human TLR8, 590 nM.
For the compound `COc1cc(-c2[nH]c3ccc(C4CCC(NC(=O)CN5CC(CO)(CO)C5)CC4)cc3c2C(C)C)cn2ncnc12` (stereo not shown) [Example 134], the results for the IC50 against human TLR7 and against human TLR8 were 1 nM and 2.5 nM, respectively.
For `CN[C@H](C)C(=O)N1CCCC(c2ccc3[nH]c(-c4cc(C)nc(C)c4)c(C(C)C)c3c2)C1` (stereo partly shown) [Example 221], the IC50 came to 4.4 nM at human TLR8 and 357 nM on human TLR9.
With `Cc1c(-c2[nH]c3ccc(C4CC(NCC#N)C4)cc3c2C(C)C)cn2ncnc2c1C` (stereo not shown) [Example 577], the IC50 was found to be 4 nM on human TLR7 and 4.5 nM on human TLR8.
On to `CCN(CC)CC(=O)N1CCOC(c2ccc3[nH]c(-c4cc(OC)c5ncnn5c4)c(C(C)C)c3c2)C1` (stereo not shown) [Example 333], for which the IC50 was 0.71 nM at human TLR7 and 4.7 nM against human TLR8.
